Results published in patent US11059823B2, “Small molecule inhibitors of the JAK family of kinases” (Janssen Pharmaceutica NV, priority 2016, dated 2021).
Read-outs that look alike come from different tables or passages of the source.

Assays:
[1] = physchem; details: thermodynamic from solid
[2] = tested on: P-gp (MDR1); assay: MDCK-MDR1 permeability assay; assay type: in vitro ADME; details: dog
Description: Permeability measurements were conducted according to the Cyprotex protocol using the MDCK-MDR1 cell line obtained from the NIH (Rockville, Md., USA). […] The cells in this assay form a cohesive sheet of a single cell layer filing the surface area of the culture dish, also known as a confluent monolayer, and on day four the test compound was added to the apical side of the membrane and the transport of the compound across the monolayer was monitored over a time period of 60 min.
Test compounds were dissolved in DMSO at a concentration of 10 mM. The dosing solutions were prepared by diluting test compound with assay buffer (Hanks Balanced Salt Solution), pH 7.4, at a final concentration of 5 μM. For assessment of apical to basolateral (“A-B”) permeability, buffer was removed from the apical compartment and replaced with test compound dosing solution with or without the permeability glycoprotein (“PgP”, “P-gP”, “Pgp” or “P-gp”) inhibitor elacridar (2 μM). For assessment of basolateral to apical (“B-A”) permeability, buffer was removed from the companion plate and replaced with test compound dosing solution. Incubations were carried out in duplicate at 37° C. in an atmosphere of 5% CO2 with a relative humidity of 95%. Each assay included the reference markers propranolol (high permeability) and prazosin (PgP substrate). After incubation for 60 minutes, apical and basolateral samples were diluted and test compounds quantified by LC/MS/MS using an 8-point calibration in the range 0.0039 to 3 μM with appropriate dilution of the samples (receiver dilution factor=1; donor and Co dilution factor=10). The permeability coefficient (Papp) for each compound was calculated from the following equation: Papp=(dQ/dt)/(C0×S), where dQ/dt is the rate of permeation of the drug across the cells, C0 is the donor compartment concentration at time zero, and S is the area of the cell monolayer.
Papp(A-B) gives an indication of permeation extent across the cells in this assay, which is envisaged to model the transcellular transport across Pgp-expressing cells, such as Pgp-expressing gastrointestinal tract cells.

[3] = tested on: IL-2 pSTAT5 (JAK1/JAK3); assay: IL-2 pSTAT5 (JAK1/JAK3) cellular assay in PBMCs (AlphaLISA); assay type: cell-based; details: PBMC, IL-2 5 ng/mL
Description: For all compounds tested, there was measured inhibition of STAT phosphorylation with all three stimuli.
The AlphaLISA assay (based on Alpha Technology from PerkinElmer) was performed by first plating freshly thawed PBMCs (Biological Specialty Corporation) in 384-well plates at 30,000 cells per 4 μL per well in HBSS (Hanks' Balanced Salt Solution) containing 0.1% IgG (immunoglobulin G)-free, protease-free BSA (bovine serum albumin) (Jackson ImmunoResearch Cat. No. 001-000-161). The cells were then treated with 2 μL/well of compounds diluted in DMSO at half-log titrated concentrations, with a highest test concentration of 10 μM and 0.5% final DMSO concentration, for thirty minutes at 37° C. […] The cellular reactions were terminated by the addition of 2 μL/well of lysis buffer (PerkinElmer Cat. No. ALSU-PST5-A10K) followed by an incubation of five minutes at room temperature. […] Finally, the plates were read on a PerkinElmer EnVision for detection of the time-resolved fluorescence signal. The percentage of IL-2-dependent pSTAT5 inhibition was determined at the compound test concentrations; and for each compound, a dose curve was generated and the IC50 was calculated. Compound IC50 was calculated by nonlinear regression, sigmoidal dose response analysis of the half-log dilution titration curve of the compound concentration vs. Alpha signal. […]

[4] = Plasma and colon concentrations after p.o. dosing (Protocols 1 and 2); assay type: in vivo, female C57BL/6 mice; details: female, C57BL/6, mouse, po, mice, 25 mg/kg p.o.
Description: These protocols are described below under the heading In vivo Studies.
(§1) Three non-fasted female C57BL/6 mice were orally administered test compound at a dose of 25 mg/kg p.o. as a solution in 20% hydroxypropyl-beta-cyclodextrin (HPβCD) at a dose volume of 5 mL/kg. Blood samples were collected at 0.5, 2, and 4 h post dose via retro-orbital bleed or venipuncture of the dorsal metatarsal vein. Blood samples were collected into tubes containing anticoagulant (Heparin-Na) and placed on wet ice. The plasma fraction was separated by centrifugation and frozen at −20° C. for up to 4 h and −80° C. after 4 h unless analyzed shortly after sample collection. Colon samples were collected at 4 h post dose. From the beginning of the cecum, a 4-6 cm sample of the colon was dissected, cut open on the longitudinal axis, and the solid contents removed by flushing with 2 mL of saline. The colon was further washed by putting it in 5 mL of saline and shaken for 5 seconds. The colon sample was then patted dry, weighed, and homogenized as 1 part tissue (g) to 4 parts HPLC grade water (mL). Concentrations of the compound in plasma and colon homogenate were determined using a qualified liquid chromatography-triple quadrupole mass spectrometry (LC-MS/MS) method.
as §1, with “HPβCD” for “hydroxypropyl-beta-cyclodextrin (HPβCD)”, “or” for “or venipuncture of the”, “2 cm below” for “the beginning of”, “4” for “4-6”

For `N#CC[C@H]1CC[C@H](n2c(-c3c[nH]cn3)nc3cnc4[nH]ccc4c32)CC1` [Ex. 2, 2-((1r,4r)-4-(2-(1H-Imidazol-4-yl)imidazo[4,5-d]pyrrolo[2,3-b]pyridin-1(6H)-yl)cyclohexyl)acetonitrile], the solubility ([1]; pH 6.5, fassif) was > 400 µM, the solubility ([1]; simulated gastric fluid) was > 400 µM and the Papp A→B at 60 min, 5 µM ([2]; MDCK-MDR1, pH 7.4, apical-to-basolateral, without elacridar, 5 μM, 60 min) was 1.1 ×10⁻⁶ cm/s. For the same molecule, the Papp B→A at 60 min, 5 µM ([2]; MDCK-MDR1, pH 7.4, basolateral-to-apical, 5 μM, 60 min) was 4.8 ×10⁻⁶ cm/s, the efflux ratio at 60 min, 5 µM ([2]; pH 7.4, MDCK-MDR1, 5 μM, read-out: Papp(B-A)/Papp(A-B) (efflux ratio)) was 4.4 and the IC50 [3] was 9 nM. For the same molecule, the concentration at 4 h ([4]; colon, read-out: Colon Concentration After p.o. Dosing, Mean) was 7600 ng/g, the concentration at 0.5 h ([4]; plasma, Time = 0.5 h) was 24.5 ng/mL and the concentration at 2 h ([4]; plasma, Time = 2 h) was 4.2 ng/mL. For the same molecule, the concentration at 4 h ([4]; plasma, read-out: Plasma Concentration After p.o. Dosing, Mean) was 1.3 ng/mL.
